From US20200405697A1, “Antitumor Agent” (Taiho Pharmaceutical Co., Ltd, priority 2017, published 2020)

Target: T1, human RNR (histidine tagged human M1 and human M2 proteins) (Homo sapiens, UniProt P23921)
T1 construct: made in house; host or cells: Escherichia coli
T1 sequence (P23921 1-792): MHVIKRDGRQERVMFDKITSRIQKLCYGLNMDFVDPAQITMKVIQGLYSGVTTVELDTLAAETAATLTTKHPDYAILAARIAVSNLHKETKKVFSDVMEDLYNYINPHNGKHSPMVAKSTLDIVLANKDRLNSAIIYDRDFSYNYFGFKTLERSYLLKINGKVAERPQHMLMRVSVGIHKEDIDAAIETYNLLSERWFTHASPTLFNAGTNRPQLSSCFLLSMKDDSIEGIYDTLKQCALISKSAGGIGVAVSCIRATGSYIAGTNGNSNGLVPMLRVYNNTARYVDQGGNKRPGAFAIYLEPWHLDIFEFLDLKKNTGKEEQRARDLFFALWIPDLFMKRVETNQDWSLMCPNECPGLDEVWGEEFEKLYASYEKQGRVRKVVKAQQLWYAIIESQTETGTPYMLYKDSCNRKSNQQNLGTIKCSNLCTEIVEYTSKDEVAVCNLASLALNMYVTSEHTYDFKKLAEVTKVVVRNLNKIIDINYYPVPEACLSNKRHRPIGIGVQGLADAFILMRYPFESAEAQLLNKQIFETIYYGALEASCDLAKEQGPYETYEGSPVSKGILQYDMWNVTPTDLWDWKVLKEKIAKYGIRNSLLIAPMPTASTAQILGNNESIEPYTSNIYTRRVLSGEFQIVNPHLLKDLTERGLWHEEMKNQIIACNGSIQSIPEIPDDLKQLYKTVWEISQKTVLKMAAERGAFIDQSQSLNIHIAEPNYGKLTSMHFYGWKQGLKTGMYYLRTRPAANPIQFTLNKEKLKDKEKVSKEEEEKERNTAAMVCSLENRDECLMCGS
Test: Human RNR inhibition effect (dCDP formation from CDP)
Type: biochemical
Conditions: 10 μM CDP, 37° C. for 30 minutes, read-out: RNR inhibitory activity IC50
Outline: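 His-tagged human M1 (isoform 1) and N-terminal 59-aa-truncated M2 (isoform 2), E. coli-expressed, Ni-purified, preincubated 20 min with compound (1% DMSO). Reaction with 10 μM CDP, 2 mM ATP, 0.24 mM NADPH, 6 mM DTT, 4 mM Mg acetate, 100 mM KCl, 50 mM HEPES pH 7.2, 30 min at 37° C. dCDP formed quantified by reverse-phase HPLC after heat stop.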

Row | IC50 [nM] | Structure (SMILES)
1 | 220 | COc1cc(Cl)ccc1S(=O)(=O)N[C@H](c1n[nH]c(=O)o1)[C@H](C)c1c(F)ccc(-c2cnc3c(c2)OCCN3C)c1C [Example 322, 4-chloro-N-((1S,2R)-2-(6-fluoro-2-methyl-3-(4-methyl-3,4-dihydro-2H-pyrido[3,2-b][1,4]oxazine-7-yl)phenyl)-1-(5-oxo-4,5-dihydro-1,3,4-oxadiazol-2-yl)propyl)-2-methoxybenzenesulfonamide]
2 | 420 | COc1cc(Cl)ccc1S(=O)(=O)N[C@H](c1n[nH]c(=O)o1)[C@H](C)c1c(F)ccc(-c2cncc(C(=O)N3CCOCC3)c2)c1C [Example 323, 4-chloro-N-((1S,2R)-2-(6-fluoro-2-methyl-3-(5-(morpholine-4-carbonyl)pyridin-3-yl)phenyl)-1-(5-oxo-4,5-dihydro-1,3,4-oxadiazol-2-yl)propyl)-2-methoxybenzenesulfonamide]
3 | 170 | Cc1c(-c2cnn(C)c2)ccc(F)c1[C@@H](C)[C@H](NS(=O)(=O)c1ccc(Cl)cc1C(N)=O)c1n[nH]c(=O)o1 [Example 324, 5-chloro-2-(N-((1S,2R)-2-(6-fluoro-2-methyl-3-(1-methyl-1H-pyrazol-4-yl)phenyl)-1-(5-oxo-4,5-dihydro-1,3,4-oxadiazol-2-yl)propyl)sulfamoyl)benzamide]
4 | 220 | Cc1ccc(F)c([C@@H](C)[C@H](NS(=O)(=O)c2ccc(Cl)c(-c3cnn(C)c3)c2)c2n[nH]c(=O)o2)c1C [Example 325, 4-chloro-N-((1S,2R)-2-(6-fluoro-2,3-dimethylphenyl)-1-(5-oxo-4,5-dihydro-1,3,4-oxadiazol-2-yl)propyl)-3-(1-methyl-1H-pyrazol-4-yl)benzenesulfonamide]
5 | 60 | Cc1c(Br)ccc(F)c1[C@@H](C)[C@H](NS(=O)(=O)c1ccc(Cl)c2c1OCCC2(C)N)c1n[nH]c(=O)o1 (stereo partly drawn) [Example 329, 4-amino-N-((1S,2R)-2-(3-bromo-6-fluoro-2-methylphenyl)-1-(5-oxo-4,5-dihydro-1,3,4-oxadiazol-2-yl)propyl)-5-chloro-4-methyl-chroman-8-sulfonamide]
6 | 90 | Cc1ccc(F)c([C@@H](C)[C@H](NS(=O)(=O)c2cc(-c3nnco3)ccc2C(N)=O)c2n[nH]c(=O)o2)c1C [Example 331, 2-(N-((1S,2R)-2-(6-fluoro-2,3-dimethylphenyl)-1-(5-oxo-4,5-dihydro-1,3,4-oxadiazol-2-yl)propyl)sulfamoyl)-4-(1,3,4-oxadiazol-2-yl)benzamide]
7 | 130 | Cc1ccc(F)c([C@@H](C)[C@H](NS(=O)(=O)c2ccc(Br)cc2C(N)=O)c2n[nH]c(=S)o2)c1C [Example 332, 5-bromo-2-(N-((1S,2R)-2-(6-fluoro-2,3-dimethylphenyl)-1-(5-thioxo-4,5-dihydro-1,3,4-oxadiazol-2-yl)propyl)sulfamoyl)benzamide]
8 | 310 | COC(=O)c1c(Cl)ccc(S(=O)(=O)N[C@H](c2n[nH]c(=S)o2)[C@H](C)c2cccc3c2CCC3)c1Cl [Example 333, methyl 2,6-dichloro-3-(N-((1S,2R)-2-(2,3-dihydro-1H-inden-4-yl)-1-(5-thioxo-4,5-dihydro-1,3,4-oxadiazol-2-yl)propyl)sulfamoyl)benzoate]
9 | 830 | COC(=O)c1cc(S(=O)(=O)N[C@H](c2n[nH]c(=S)o2)[C@H](C)c2cccc3c2CCC3)ccc1Cl [Example 334, methyl 2-chloro-5-(N-((1S,2R)-2-(2,3-dihydro-1H-inden-4-yl)-1-(5-thioxo-4,5-dihydro-1,3,4-oxadiazol-2-yl)propyl)sulfamoyl)benzoate]
10 | 80 | Cc1ccc(F)c([C@@H](C)[C@@H](c2n[nH]c(=O)o2)N(C)S(=O)(=O)c2ccc(Cl)cc2C(N)=O)c1C [Example 337, 5-chloro-2-(N-((1S,2R)-2-(6-fluoro-2,3-dimethylphenyl)-1-(5-oxo-4,5-dihydro-1,3,4 oxadiazol-2-yl)propyl)-N-methylsulfamoyl)benzamide]
11 | 100 | Cc1ccc(F)c([C@@H](C)[C@H](NS(=O)(=O)c2ccc(Br)cc2OC(F)(F)F)c2n[nH]c(=O)o2)c1C [Example 338, 4-bromo-N-((1S,2R)-(6-fluoro-2,3-dimethylphenyl)-1-(5-oxo-4,5-dihydro-1,3,4-oxadiazol-2-yl)propyl)-2-(trifluoromethoxy)benzenesulfonamide]
12 | 510 | Cc1ccc(F)c([C@@H](C)[C@H](NS(=O)(=O)c2cc(F)c(Br)cc2F)c2n[nH]c(=O)o2)c1C [Example 339, 4-bromo-2,5-difluoro-N-((1S,2R)-(6-fluoro-2,3-dimethylphenyl)-1-(5-oxo-4,5-dihydro-1,3,4-oxadiazol-2-yl)propyl)benzenesulfonamide]
13 | 270 | Cc1ccc(F)c([C@@H](C)[C@H](NS(=O)(=O)c2ccc([N+](=O)[O-])cc2)c2n[nH]c(=O)o2)c1C [Example 340, N-((1S,2R)-(6-fluoro-2,3-dimethylphenyl)-1-(5-oxo-4,5-dihydro-1,3,4-oxadiazol-2-yl)propyl)-4-nitrobenzenesulfonamide]
14 | 410 | Cc1ccc(F)c([C@@H](C)[C@H](NS(=O)(=O)c2ccc(C#N)cc2)c2n[nH]c(=O)o2)c1C [Example 341, 4-cyano-N-((1S,2R)-(6-fluoro-2,3-dimethylphenyl)-1-(5-oxo-4,5-dihydro-1,3,4-oxadiazol-2-yl)propyl)benzenesulfonamide]
15 | 90 | COc1cc(C#N)ccc1S(=O)(=O)N[C@H](c1n[nH]c(=O)o1)[C@H](C)c1c(F)ccc(C)c1C [Example 342, 4-cyano-N-((1S,2R)-(6-fluoro-2,3-dimethylphenyl)-1-(5-oxo-4,5-dihydro-1,3,4-oxadiazol-2-yl)propyl)-2-methoxybenzenesulfonamide]
16 | 640 | Cc1ccc(F)c([C@@H](C)[C@H](NS(=O)(=O)c2ccc(Br)c(C#N)c2)c2n[nH]c(=O)o2)c1C [Example 343, 4-bromo-3-cyano-N-((1S,2R)-(6-fluoro-2,3-dimethylphenyl)-1-(5-oxo-4,5-dihydro-1,3,4-oxadiazol-2-yl)propyl)benzenesulfonamide]
17 | 720 | COc1ccc(-c2cc(S(=O)(=O)N[C@H](c3n[nH]c(=O)o3)[C@H](C)c3c(F)ccc(C)c3C)ccc2Cl)cc1 [Example 344, 6-chloro-N-((1S,2R)-2-(6-fluoro-2,3-dimethylphenyl)-1-(5-oxo-4,5-dihydro-1,3,4-oxadiazol-2-yl)propyl)-4′-methoxy-[1,1′-biphenyl]-3-sulfonamide]
18 | 250 | COc1ccccc1-c1ccc(C(N)=O)c(S(=O)(=O)N[C@H](c2n[nH]c(=O)o2)[C@H](C)c2c(F)ccc(C)c2C)c1 [Example 345]
19 | 420 | COc1cc(C(N)=O)ccc1S(=O)(=O)N[C@H](c1n[nH]c(=O)o1)[C@H](C)c1c(F)ccc(C)c1C [Example 346, 4-(N-((1S,2R)-(6-fluoro-2,3-dimethylphenyl)-1-(5-oxo-4,5-dihydro-1,3,4-oxadiazol-2 yl)propyl)sulfamoyl)-3-methoxybenzamide]
20 | 250 | COc1cc(Cl)ccc1S(=O)(=O)N[C@H](c1noc(=O)[nH]1)[C@H](C)c1c(F)ccc(C)c1C [Example 349, 4-chloro-N-((1S,2R)-2-(6-fluoro-2,3-dimethylphenyl)-1-(5-oxo-4,5-dihydro-1,2,4-oxadiazol-3-yl)propyl)-2-methoxybenzenesulfonamide]
21 | 460 | COc1cc(Cl)ccc1S(=O)(=O)N[C@H](c1n[nH]c(=S)[nH]1)[C@H](C)c1c(F)ccc(C)c1C [Example 350]
